Read-outs that look alike come from different tables or passages of the source.
Key:
[1] = target: Mcl-1 (Homo sapiens, UniProt Q07820); test: Mcl-1 Homogeneous Time Resolved Fluorescence (HTRF) binding assay
[2] = system: NCI-H929 (ATCC CRL-9068) cells; test: NCI-H929 cell proliferation assay (CellTiter-Glo); type: cell-based; settings: 72 h of compound treatment
Experimental: Cell proliferation was measured using the CellTiter-Glo® Luminescent Cell Viability Assay. The assay involved the addition of a single reagent (CellTiter-Glo® Reagent) directly to cells cultured in serum-supplemented medium.
Each compound evaluated was prepared as a DMSO stock solution (10 mM). Compounds were tested in duplicate on each plate, with a 10-point serial dilution curve (1:3 dilution). Compound treatment ([…]) was added from the compound dilution plate to the cell plate. The highest compound concentration was 10 μM (final), with a 0.1% final DMSO concentration. Plates were then incubated at 37° C., 5% CO2. After 72 h of compound treatment, cell plates were equilibrated at rt for approximately 30 mins. An equi-volume amount of CellTiter-Glo® Reagent (40 μL) was added to each well. Plates were mixed for 2 mins on an orbital shaker to induce cell lysis and then incubated at rt for 10 mins to stabilize the luminescent signal. Luminescence was recorded using an Envision plate reader according to CellTiter-Glo protocol. IC50 of each compound was calculated using GraphPad Prism by nonlinear regression analysis.

[3] = HTRF, 4 nM Mcl-1, 100 nM FAM-Bak peptide, 10-dose, singlicate, read-out: Mcl-1 IC50

Chain of Mcl-1 (Q07820 whole entry): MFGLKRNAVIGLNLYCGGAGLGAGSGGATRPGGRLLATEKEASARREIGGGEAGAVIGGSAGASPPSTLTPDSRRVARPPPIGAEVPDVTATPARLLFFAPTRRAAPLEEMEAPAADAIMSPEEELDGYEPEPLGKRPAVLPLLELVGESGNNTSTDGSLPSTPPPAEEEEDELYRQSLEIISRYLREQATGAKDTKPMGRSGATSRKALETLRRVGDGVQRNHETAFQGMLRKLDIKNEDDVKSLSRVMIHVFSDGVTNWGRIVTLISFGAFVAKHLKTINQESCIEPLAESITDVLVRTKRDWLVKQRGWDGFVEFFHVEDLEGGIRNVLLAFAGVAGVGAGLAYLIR

Compound	IC50 [1, 3] [nM]	IC50 [2] [nM]	IC50 ([2]; Homo sapiens, NCI-H929, 72 h) [nM]	IC50 ([1]; Mcl-1 IC50 (nM)) [nM]	IC50 ([2]; Homo sapiens) [nM]
Cn1nc2cc1CSc1cc(c3ccccc3c1)OCCCc1c(C(=O)O)n(C)c3c(c(Cl)ccc13)-c1c(nn(C)c1C#N)CSC2 (single isomer, unassigned) [Example 1A, (Z)-1^6-Chloro-2^5-cyano-1^1,2^1,6^1-trimethyl-1^1H,2^1H,6^1H-10-oxa-4,8-dithia-1(7,3)-indola-2(4,3),6(3,5)-dipyrazola-9(3,1)-naphthalenacyclotridecaphane-1^2-carboxylic acid]	< 10	100 to 1000	–	–	–
Cn1nc2cc1CSc1cc(c3ccccc3c1)OCCCc1c(C(=O)O)n(C)c3c(c(Cl)ccc13)-c1c(nn(C)c1C#N)CSC2 (single isomer, unassigned) [Example 1B, (Z)-1^6-Chloro-2^5-cyano-1^1,2^1,6^1-trimethyl-1^1H,2^1H,6^1H-10-oxa-4,8-dithia-1(7,3)-indola-2(4,3),6(3,5)-dipyrazola-9(3,1)-naphthalenacyclotridecaphane-1^2-carboxylic acid]	> 100	> 1000	–	–	–
Cn1nc2cc1CSc1cc(c3ccccc3c1)OCCCc1c(C(=O)O)n(C)c3c(c(Cl)ccc13)-c1c(nn3c1CCCC3)CSC2 (single isomer, unassigned) [Example 2A, (Z)-1^6-Chloro-1^1,6^1-dimethyl-2^4,2^5,2^6,2^7-tetrahydro-1^1H,6^1H-10-oxa-4,8-dithia-2(3,2)-pyrazolo[1,5-a]pyridina-1(7,3)-indola-6(3,5)-pyrazola-9(3,1)-naphthalenacyclotridecaphane-1^2-carboxylic acid]	< 10	< 100	–	–	–
Cn1nc2cc1CSc1cc(c3ccccc3c1)OCCCc1c(C(=O)O)n(C)c3c(c(Cl)ccc13)-c1c(nn3c1CCCC3)CSC2 (single isomer, unassigned) [Example 2B, (Z)-1^6-Chloro-1^1,6^1-dimethyl-2^4,2^5,2^6,2^7-tetrahydro-1^1H,6^1H-10-oxa-4,8-dithia-2(3,2)-pyrazolo[1,5-a]pyridina-1(7,3)-indola-6(3,5)-pyrazola-9(3,1)-naphthalenacyclotridecaphane-1^2-carboxylic acid]	10 to 100	> 1000	–	–	–
Cn1nc2cc1CSc1cc(c3ccccc3c1)OCCCc1c(C(=O)O)n(C)c3c(c(Cl)ccc13)-c1c(nn3c1CCC3)CSC2 (single isomer, unassigned) [Example 3A, (Z)-1^6-Chloro-1^1,6^1-dimethyl-2^5,2^6-dihydro-1^1H,2^4H,6^1H-10-oxa-4,8-dithia-1(7,3)-indola-2(3,2)-pyrrolo[1,2-b]pyrazola-6(3,5)-pyrazola-9(3,1)-naphthalenacyclotridecaphane-1^2-carboxylic acid]	< 10	< 100	–	–	–
Cn1nc2cc1CSc1cc(c3ccccc3c1)OCCCc1c(C(=O)O)n(C)c3c(c(Cl)ccc13)-c1c(nn3c1CCC3)CSC2 (single isomer, unassigned) [Example 3B, (Z)-1^6-Chloro-1^1,6^1-dimethyl-2^5,2^6-dihydro-1^1H,2^4H,6^1H-10-oxa-4,8-dithia-1(7,3)-indola-2(3,2)-pyrrolo[1,2-b]pyrazola-6(3,5)-pyrazola-9(3,1)-naphthalenacyclotridecaphane-1^2-carboxylic acid]	10 to 100	> 1000	–	–	–
Cn1nc2cc1CSc1cc(c3ccccc3c1)OCCCc1c(C(=O)O)n(C)c3c(c(Cl)ccc13)-c1c(nn3c1COCC3)CSC2 (single isomer, unassigned) [Example 4A, (Z)-1^6-Chloro-1^1,6^1-dimethyl-2^6,2^7-dihydro-1^1H,2^4H,6^1H-10-oxa-4,8-dithia-2(3,2)-pyrazolo[5,1-c][1,4]oxazina-1(7,3)-indola-6(3,5)-pyrazola-9(3,1)-naphthalenacyclotridecaphane-1^2-carboxylic acid]	< 10	100 to 1000	–	–	–
Cn1nc2cc1CSc1cc(c3ccccc3c1)OCCCc1c(C(=O)O)n(C)c3c(c(Cl)ccc13)-c1c(nn3c1COCC3)CSC2 (single isomer, unassigned) [Example 4B, (Z)-1^6-Chloro-1^1,6^1-dimethyl-2^6,2^7-dihydro-1^1H,2^4H,6^1H-10-oxa-4,8-dithia-2(3,2)-pyrazolo[5,1-c][1,4]oxazina-1(7,3)-indola-6(3,5)-pyrazola-9(3,1)-naphthalenacyclotridecaphane-1^2-carboxylic acid]	10 to 100	> 1000	–	–	–
Cn1nc2cc1CSc1cc(c3ccccc3c1)OCCCc1c(C(=O)O)n(C)c3c(c(Cl)ccc13)-c1c(nn3c1CSC3)CSC2 (single isomer, unassigned) [Example 5A, (Z)-1^6-Chloro-1^1,6^1-dimethyl-1^1H,2^4H,2^6H,6^1H-10-oxa-4,8-dithia-2(3,2)-pyrazolo[1,5-c]thiazola-1(7,3)-indola-6(3,5)-pyrazola-9(3,1)-naphthalenacyclotridecaphane-1^2-carboxylic acid]	< 10	100 to 1000	–	–	–
Cn1nc2cc1CSc1cc(c3ccccc3c1)OCCCc1c(C(=O)O)n(C)c3c(c(Cl)ccc13)-c1c(nn3c1CSC3)CSC2 (single isomer, unassigned) [Example 5B, (Z)-1^6-Chloro-1^1,6^1-dimethyl-1^1H,2^4H,2^6H,6^1H-10-oxa-4,8-dithia-2(3,2)-pyrazolo[1,5-c]thiazola-1(7,3)-indola-6(3,5)-pyrazola-9(3,1)-naphthalenacyclotridecaphane-1^2-carboxylic acid]	> 100	> 1000	–	–	–
Cc1[nH]nc2c1-c1c(Cl)ccc3c(c(C(=O)O)n(C)c13)CCCOc1cc(cc3ccccc13)SCc1cc(nn1C)CSC2 (single isomer, unassigned) [Example 6A, (Z)-1^6-Chloro-1^1,2^5,6^1-trimethyl-1^1H,2^1H,6^1H-10-oxa-4,8-dithia-1(7,3)-indola-2(4,3),6(3,5)-dipyrazola-9(3,1)-naphthalenacyclotridecaphane-1^2-carboxylic acid]	< 10	< 100	–	–	–
Cc1[nH]nc2c1-c1c(Cl)ccc3c(c(C(=O)O)n(C)c13)CCCOc1cc(cc3ccccc13)SCc1cc(nn1C)CSC2 (single isomer, unassigned) [Example 6B, (Z)-1^6-Chloro-1^1,2^5,6^1-trimethyl-1^1H,2^1H,6^1H-10-oxa-4,8-dithia-1(7,3)-indola-2(4,3),6(3,5)-dipyrazola-9(3,1)-naphthalenacyclotridecaphane-1^2-carboxylic acid]	10 to 100	> 1000	–	–	–
Cc1[nH]nc2c1-c1c(F)ccc3c(c(C(=O)O)n(C)c13)CCCOc1cc(cc3ccccc13)SCc1cc(nn1C(C)C)CSC2 (single isomer, unassigned) [Example 7B, (Z)-1^6-Fluoro-6^1-isopropyl-1^1,2^5-dimethyl-1^1H,2^1H,6^1H-10-oxa-4,8-dithia-1(7,3)-indola-2(4,3),6(3,5)-dipyrazola-9(3,1)-naphthalenacyclotridecaphane-1^2-carboxylic acid]	< 10	–	–	–	–
Cc1[nH]nc2c1-c1c(Cl)ccc3c(c(C(=O)O)n(C)c13)CCCOc1cc(cc3ccccc13)SCc1cc(nn1C(C)C)CSC2 (single isomer, unassigned) [Example 9A, (Z)-1^6-Chloro-6^1-isopropyl-1^1,2^5-dimethyl-1^1H,2^1H,6^1H-10-oxa-4,8-dithia-1(7,3)-indola-2(4,3),6(3,5)-dipyrazola-9(3,1)-naphthalenacyclotridecaphane-1^2-carboxylic acid]	< 10	–	100 to 1000	–	–
Cc1c2c(nn1C)CSCc1cc(n(C(C)C)n1)CSc1cc(c3ccccc3c1)OCCCc1c(C(=O)O)n(C)c3c-2c(Cl)ccc13 (single isomer, unassigned) [Example 10A, (Z)-1^6-Chloro-6^1-isopropyl-1^1,2^1,2^5-trimethyl-1^1H,2^1H,6^1H-10-oxa-4,8-dithia-1(7,3)-indola-2(4,3),6(3,5)-dipyrazola-9(3,1)-naphthalenacyclotridecaphane-1^2-carboxylic acid]	< 10	–	< 100	–	–
Cc1c2c(nn1C)CSCc1cc(n[nH]1)CSc1cc(c3ccccc3c1)OCCCc1c(C(=O)O)n(C)c3c-2c(Cl)ccc13 (single isomer, unassigned) [Example 11B, (Z)-1^6-Chloro-1^1,2^1,2^5-trimethyl-1^1H,2^1H,6^1H-10-oxa-4,8-dithia-1(7,3)-indola-2(4,3),6(3,5)-dipyrazola-9(3,1)-naphthalenacyclotridecaphane-1^2-carboxylic acid]	–	–	–	< 10	< 100
(Z)-2^5-(tert-Butoxycarbonyl)-1^6-chloro-1^1,6^1-dimethyl-2^4,2^5,2^6,2^7-tetrahydro-1^1H,6^1H-10-oxa-4,8-dithia-2(3,2)-pyrazolo[1,5-a]pyrazina-1(7,3)-indola-6(3,5)-pyrazola-9(3,1)-naphthalenacyclotridecaphane-1^2-carboxylic acid [Example 22A]	–	100 to 1000	–	–	–
(Z)-2^5-(tert-Butoxycarbonyl)-1^6-chloro-1^1,6^1-dimethyl-2^4,2^5,2^6,2^7-tetrahydro-1^1H,6^1H-10-oxa-4,8-dithia-2(3,2)-pyrazolo[1,5-a]pyrazina-1(7,3)-indola-6(3,5)-pyrazola-9(3,1)-naphthalenacyclotridecaphane-1^2-carboxylic acid [Example 22B]	–	> 1000	–	–	–
(Z)-6^1-Ethyl-1^6-fluoro-1^1,2^1,2^3-trimethyl-1^1H,2^1H,6^1H-10-oxa-4,8-dithia-1(7,3)-indola-2(4,5),6(3,5)-dipyrazola-9(3,1)-naphthalenacyclotridecaphane-1^2-carboxylic acid [Example 15B]	–	> 1000	–	–	–
